Entries after “also recorded” stand apart in the source; their conditions may differ.
Assays:
HCT-116 = HCT-116 subcutaneous xenograft, mouse; cited from earlier work
A2780 = A2780 subcutaneous xenograft, mouse; cited from earlier work
HCT15 = HCT15 subcutaneous xenograft, mouse; cited from earlier work
[1] = tested on: patients with advanced or refractory myeloid leukemias; experiment: Phase 1 dose-escalation: safety, DLT and MTD; format: in vivo
[2] = tested on: Peripheral blood mononuclear cells (PBMCs); experiment: Pharmacodynamics: spindle morphology by confocal imaging; format: cell-based, human
HT-29 = HT-29 subcutaneous xenograft, mouse; cited from earlier work
multiple myeloma = conditions: cited from earlier work
[3] = Plasma pharmacokinetics of ARRY-520; format: in vivo, human; conditions: for coefficient of variation (CV) for CL: inter-patient variability; for AUC(0-t) / clearance / Cmax / MRT / Tmax / Vd / half-life: human, plasma, intravenous; for AUC(0-t) / clearance / Cmax: geometric mean (geometric %CV); for MRT / Tmax / half-life: median (min-max); for Vd: mean (%CV)

CON(C)C(=O)N1N=C(c2cc(F)ccc2F)S[C@@]1(CCCN)c1ccccc1 [ARRY-520]
anti-cancer efficacy (HCT-116): demonstrated anti-cancer efficacy
anti-cancer efficacy (A2780): demonstrated anti-cancer efficacy
anti-cancer efficacy (HCT15): demonstrated anti-cancer efficacy
MTD, total dose ([1]; Schedule 2 (Days 1, 3 and 5)): 4.5 mg/m^2
died within 30 days following discontinuation of ARRY-520, % ([1]; all patients): 17%
died within 30 days following discontinuation of ARRY-520, patients n ([1]; all patients): 6
Grades 3 or 4 reversible drug-related myelosuppression, patients ([1]; human, in vivo): 33/36
adverse events leading to discontinuation, % of patients ([1]; human, in vivo): 8%
adverse events leading to discontinuation, patients n ([1]; human, in vivo): 3
asymptomatic Grade 1 QTc prolongation, % of patients ([1]; human, in vivo): 22%
asymptomatic Grade 1 QTc prolongation, patients n ([1]; human, in vivo): 8
asymptomatic Grade 2 QTc prolongation, % of patients ([1]; human, in vivo): 3%
asymptomatic Grade 2 QTc prolongation, patients n ([1]; human, in vivo): 1
drug-related SAE bacteremia, % ([1]; human, in vivo): 3%
drug-related SAE diarrhea, % ([1]; human, in vivo): 3%
drug-related SAE exfoliative rash, % ([1]; human, in vivo): 3%
drug-related SAE hyperbilirubinemia, % ([1]; human, in vivo): 3%
drug-related SAE neutropenic fever, % ([1]; human, in vivo): 8%
drug-related SAE palmar-plantar erythrodysesthesia, % ([1]; human, in vivo): 6%
drug-related SAE pancytopenia, % ([1]; human, in vivo): 3%
drug-related SAE stomatitis, % ([1]; human, in vivo): 3%
patients with one or more SAEs related to study drug, % ([1]; human, in vivo): 28%
Dose-limiting toxicities (DLT) ([1]; in vivo): mucositis, exfoliative rash, hand-foot syndrome and hyperbilirubinemia
Neurotoxicity ([1]; in vivo): not observed
other clinically significant ECG changes ([1]; in vivo): No other clinically significant ECG changes were observed
Aberrant spindles (with misaligned DNA) in PBMCs ([2]; Cycle 1, Day 5, patients dosed at 1.2 mg/m^2/day (after 3 doses)): observed in some PBMCs; also recorded: Aberrant spindles are observed; also recorded: abnormal spindles were observed
Monopolar spindles in blood mononuclear cells ([2]; DAPI nucleic acid stain and anti-tubulin antibodies): Monopolar spindles were observed
anti-cancer efficacy (HT-29): demonstrated anti-cancer efficacy
activity in xenograft models of multiple myeloma (multiple myeloma): has shown activity
coefficient of variation (CV) for CL ([3]; Schedule 1, Cycle 1): 50.7%
coefficient of variation (CV) for CL ([3]; Schedule 1, Cycle 2): 77.1%
time plasma concentrations maintained above 2 ng/mL ([3]; Schedule 1, following a single infusion, postinitiation of infusion, all cohorts): greater than 7 days
time geometric mean plasma concentrations maintained above 2 ng/mL ([3]; Schedule 2, all cohorts): more than 14 days
overall ratio of AUC0–24 on Day 5 compared to Day 1 ([3]; Schedule 2, dosing at 48-hour intervals): 2.23
AUC(0-t) ([3]; 0.8 mg/m^2, AUC0–24, Schedule 2, Cycle 1 Day 1, 0.8 mg/m^2 (N=3)): 116 ng·h/mL
AUC(0-t) ([3]; 0.8 mg/m^2, AUC0–24, Schedule 2, Cycle 1 Day 5, 0.8 mg/m^2 (N=3)): 179 ng·h/mL
clearance ([3]; 0.8 mg/m^2, CL, Schedule 2, Cycle 1 Day 1, 0.8 mg/m^2 (N=3)): 109 mL/min
clearance ([3]; 0.8 mg/m^2, CL, Schedule 2, Cycle 1 Day 5, 0.8 mg/m^2 (N=3)): 33.8 mL/min
Cmax ([3]; 0.8 mg/m^2, Cmax, Schedule 2, Cycle 1 Day 1, 0.8 mg/m^2 (N=3)): 19.5 ng/mL
Cmax ([3]; 0.8 mg/m^2, Cmax, Schedule 2, Cycle 1 Day 5, 0.8 mg/m^2 (N=3)): 25.3 ng/mL
MRT ([3]; 0.8 mg/m^2, MRT, Schedule 2, Cycle 1 Day 5, 0.8 mg/m^2 (N=3)): 130 h
Tmax ([3]; 0.8 mg/m^2, Tmax, Schedule 2, Cycle 1 Day 1, 0.8 mg/m^2 (N=3)): 1 h
Tmax ([3]; 0.8 mg/m^2, Tmax, Schedule 2, Cycle 1 Day 5, 0.8 mg/m^2 (N=3)): 1.08 h
Vd ([3]; 0.8 mg/m^2, Vss, Schedule 2, Cycle 1 Day 1, 0.8 mg/m^2 (N=3)): 295 L
Vd ([3]; 0.8 mg/m^2, Vss, Schedule 2, Cycle 1 Day 5, 0.8 mg/m^2 (N=3)): 193 L
half-life ([3]; 0.8 mg/m^2, t1/2, Schedule 2, Cycle 1 Day 1, 0.8 mg/m^2 (N=3)): 29.8 h
half-life ([3]; 0.8 mg/m^2, t1/2, Schedule 2, Cycle 1 Day 5, 0.8 mg/m^2 (N=3)): 92.5 h
AUC(0-t) ([3]; 1.2 mg/m^2, AUC0–24, Schedule 2, Cycle 1 Day 1, 1.2 mg/m^2 (N=6)): 133 ng·h/mL
AUC(0-t) ([3]; 1.2 mg/m^2, AUC0–24, Schedule 2, Cycle 1 Day 5, 1.2 mg/m^2 (N=6)): 320 ng·h/mL
clearance ([3]; 1.2 mg/m^2, CL, Schedule 2, Cycle 1 Day 1, 1.2 mg/m^2 (N=6)): 130 mL/min
clearance ([3]; 1.2 mg/m^2, CL, Schedule 2, Cycle 1 Day 5, 1.2 mg/m^2 (N=6)): 15.8 mL/min
Cmax ([3]; 1.2 mg/m^2, Cmax, Schedule 2, Cycle 1 Day 1, 1.2 mg/m^2 (N=6)): 18.8 ng/mL
Cmax ([3]; 1.2 mg/m^2, Cmax, Schedule 2, Cycle 1 Day 5, 1.2 mg/m^2 (N=6)): 24.3 ng/mL
MRT ([3]; 1.2 mg/m^2, MRT, Schedule 2, Cycle 1 Day 5, 1.2 mg/m^2 (N=6)): 134 h
Tmax ([3]; 1.2 mg/m^2, Tmax, Schedule 2, Cycle 1 Day 1, 1.2 mg/m^2 (N=6)): 1.09 h
Tmax ([3]; 1.2 mg/m^2, Tmax, Schedule 2, Cycle 1 Day 5, 1.2 mg/m^2 (N=6)): 1 h
Vd ([3]; 1.2 mg/m^2, Vss, Schedule 2, Cycle 1 Day 1, 1.2 mg/m^2 (N=6)): 363 L
Vd ([3]; 1.2 mg/m^2, Vss, Schedule 2, Cycle 1 Day 5, 1.2 mg/m^2 (N=6)): 239 L
half-life ([3]; 1.2 mg/m^2, t1/2, Schedule 2, Cycle 1 Day 1, 1.2 mg/m^2 (N=6)): 25.6 h
half-life ([3]; 1.2 mg/m^2, t1/2, Schedule 2, Cycle 1 Day 5, 1.2 mg/m^2 (N=6)): 94.9 h
AUC(0-t) ([3]; 1.5 mg/m^2, AUC0–24, Schedule 2, Cycle 1 Day 1, 1.5 mg/m^2 (N=6)): 264 ng·h/mL
AUC(0-t) ([3]; 1.5 mg/m^2, AUC0–24, Schedule 2, Cycle 1 Day 5, 1.5 mg/m^2 (N=6)): 667 ng·h/mL
clearance ([3]; 1.5 mg/m^2, CL, Schedule 2, Cycle 1 Day 1, 1.5 mg/m^2 (N=6)): 98.3 mL/min
clearance ([3]; 1.5 mg/m^2, CL, Schedule 2, Cycle 1 Day 5, 1.5 mg/m^2 (N=6)): 18.5 mL/min
Cmax ([3]; 1.5 mg/m^2, Cmax, Schedule 2, Cycle 1 Day 1, 1.5 mg/m^2 (N=6)): 57.9 ng/mL
Cmax ([3]; 1.5 mg/m^2, Cmax, Schedule 2, Cycle 1 Day 5, 1.5 mg/m^2 (N=6)): 134 ng/mL
MRT ([3]; 1.5 mg/m^2, MRT, Schedule 2, Cycle 1 Day 5, 1.5 mg/m^2 (N=6)): 119 h
Tmax ([3]; 1.5 mg/m^2, Tmax, Schedule 2, Cycle 1 Day 1, 1.5 mg/m^2 (N=6)): 1 h
Tmax ([3]; 1.5 mg/m^2, Tmax, Schedule 2, Cycle 1 Day 5, 1.5 mg/m^2 (N=6)): 1.02 h
Vd ([3]; 1.5 mg/m^2, Vss, Schedule 2, Cycle 1 Day 1, 1.5 mg/m^2 (N=6)): 251 L
Vd ([3]; 1.5 mg/m^2, Vss, Schedule 2, Cycle 1 Day 5, 1.5 mg/m^2 (N=6)): 169 L
half-life ([3]; 1.5 mg/m^2, t1/2, Schedule 2, Cycle 1 Day 1, 1.5 mg/m^2 (N=6)): 26.1 h
half-life ([3]; 1.5 mg/m^2, t1/2, Schedule 2, Cycle 1 Day 5, 1.5 mg/m^2 (N=6)): 82.2 h

Source: publication PMC4984525 (Cancer, 2011)
